The supplement of paper PMC7017272
± gives the standard deviation of the averaged measurements.

Key:
Details in all cases: treatment time: 3 days
UT-SCC-24A = test: drug sensitivity score (DSS); higher = more sensitive
Protocol: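 HNSCC cell lines (500 cells/well, 384-well) were cultured on plastic, on top of (2D) or embedded (3D) in Matrigel or human leiomyoma matrix Myogel (500 ug/mL; Myogel 3D mixed with rat collagen I). Cells were treated for 3 days with 5 ten-fold concentrations of each drug, and viability was read by CellTiter-Glo. Suffixes _1/_2/_3 on drug names are replicates.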

UT-SCC-106A [1] = test: maximal % inhibition of viability relative to DMSO; higher = stronger effect
Protocol: (§1)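 HNSCC cell lines (500 cells/well, 384-well) were cultured on plastic, on top of (2D) or embedded (3D) in Matrigel or human leiomyoma matrix Myogel (500 ug/mL; Myogel 3D mixed with rat collagen I). Cells were treated for 3 days with 5 ten-fold concentrations of each drug, and viability was read by CellTiter-Glo. Viability was normalised to DMSO and benzethonium chloride controls and fitted with the FIMM DSRT pipeline to give IC50 (nM), maximal % inhibition and DSS. Suffixes _1/_2/_3 are replicates. Only inhibition-mode (IC50) fits are kept.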

UT-SCC-14 [2] = test: as above
Protocol: as §1

UT-SCC-24B [3] = test: as above
Protocol: as §1

UT-SCC-28 = test: as above
Protocol: as §1

UT-SCC-40 [4] = test: as above
Protocol: as §1

UT-SCC-42A = test: as above
Protocol: as §1

UT-SCC-42B [5] = test: as above
Protocol: as §1

UT-SCC-44 [6] = test: as above
Protocol: as §1

UT-SCC-73 [7] = test: as above
Protocol: as §1

UT-SCC-81 = test: as above
Protocol: as §1

UT-SCC-8 [8] = test: as above
Protocol: as §1

UT-SCC-106A [9] = test: relative IC50 (midpoint of the fitted curve; maximal inhibition may be below 50%); higher = less potent
Method in brief: (§2)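 Viability was read with CellTiter-Glo 2.0 luminescence and scaled against vehicle (0.1% DMSO) and cell-killing control wells. The assay used HPV-negative HNSCC cell lines at 500 cells/well in 384-well plates, grown on plastic, on Matrigel or Myogel coatings (500 µg/mL), or embedded in Matrigel or Myogel plus rat collagen I, and treated for 3 days at five 10-fold concentrations. IC50, maximal inhibition and drug sensitivity score were derived from percent-inhibition dose–response curves fitted in the FIMM pipeline.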

UT-SCC-14 [10] = test: as above
Method in brief: as §2

UT-SCC-24B [11] = test: as above
Method in brief: as §2

UT-SCC-40 [12] = test: as above
Method in brief: as §2

UT-SCC-42B [13] = test: as above
Method in brief: as §2

UT-SCC-44 [14] = test: as above
Method in brief: as §2

UT-SCC-73 [15] = test: as above
Method in brief: as §2

UT-SCC-8 [16] = test: as above
Method in brief: as §2

[17] = culture condition: embedded in Matrigel
[18] = culture condition: embedded in Myogel + collagen I
[19] = culture condition: on top of Matrigel
[20] = culture condition: on top of Myogel
[21] = culture condition: plastic 2D (no matrix)

relative IC50 (UT-SCC-106A [9]; [17]): 336 nM
relative IC50 (UT-SCC-106A [9]; [18]): 862 nM
relative IC50 (UT-SCC-106A [9]; [19]): 488 nM
relative IC50 (UT-SCC-106A [9]; [20]): 1470 nM
relative IC50 (UT-SCC-106A [9]; [21]): 936 nM
relative IC50 (UT-SCC-14 [10]; [17]): 1210 nM
relative IC50 (UT-SCC-14 [10]; [18]): 1810 nM
relative IC50 (UT-SCC-14 [10]; [19]): 1510 nM
relative IC50 (UT-SCC-14 [10]; [20]): 1930 nM
relative IC50 (UT-SCC-14 [10]; [21]): 2000 nM
relative IC50 (UT-SCC-24B [11]; [17]): 891 nM
relative IC50 (UT-SCC-24B [11]; [18]): 736 nM
relative IC50 (UT-SCC-24B [11]; [19]): 874 nM
relative IC50 (UT-SCC-24B [11]; [20]): 1150 nM
relative IC50 (UT-SCC-24B [11]; [21]): 850 nM
relative IC50 (UT-SCC-40 [12]; [17]): 1240 nM
relative IC50 (UT-SCC-40 [12]; [18]): 1560 nM
relative IC50 (UT-SCC-40 [12]; [19]): 1520 nM
relative IC50 (UT-SCC-40 [12]; [20]): 1870 nM
relative IC50 (UT-SCC-40 [12]; [21]): 1820 nM
relative IC50 (UT-SCC-42B [13]; [17]): 1900 nM
relative IC50 (UT-SCC-42B [13]; [19]): 2320 nM
relative IC50 (UT-SCC-42B [13]; [20]): 2160 nM
relative IC50 (UT-SCC-42B [13]; [21]): 2390 nM
relative IC50 (UT-SCC-44 [14]; [17]): 279 nM
relative IC50 (UT-SCC-44 [14]; [18]): 1450 nM
relative IC50 (UT-SCC-44 [14]; [19]): 452 nM
relative IC50 (UT-SCC-44 [14]; [21]): 1130 nM
relative IC50 (UT-SCC-73 [15]; [17]): 1110 nM
relative IC50 (UT-SCC-73 [15]; [18]): 1170 nM
relative IC50 (UT-SCC-73 [15]; [19]): 1450 nM
relative IC50 (UT-SCC-73 [15]; [20]): 1540 nM
relative IC50 (UT-SCC-73 [15]; [21]): 1670 nM
relative IC50 (UT-SCC-8 [16]; [17]): 1330 nM
relative IC50 (UT-SCC-8 [16]; [18]): 2370 nM
relative IC50 (UT-SCC-8 [16]; [19]): 1380 nM
relative IC50 (UT-SCC-8 [16]; [20]): 1280 nM
relative IC50 (UT-SCC-8 [16]; [21]): 1410 nM
SMILES: Cc1c(CN2CCN(C(=O)[C@H](C)O)CC2)sc2c(N3CCOCC3)nc(-c3cnc(N)nc3)nc12 [Apitolisib]
drug sensitivity score (UT-SCC-24A; [17]): 12.5 ± 2.4 DSS
drug sensitivity score (UT-SCC-24A; [18]): 13.1 ± 1.9 DSS
drug sensitivity score (UT-SCC-24A; [19]): 13 ± 0.85 DSS
drug sensitivity score (UT-SCC-24A; [20]): 9.97 ± 0.15 DSS
drug sensitivity score (UT-SCC-24A; [21]): 13.5 ± 1.6 DSS
maximal % inhibition of viability (UT-SCC-106A [1]; [17]): 69.8 ± 1.9%
maximal % inhibition of viability (UT-SCC-106A [1]; [18]): 60.4 ± 6.1%
maximal % inhibition of viability (UT-SCC-106A [1]; [19]): 74.7 ± 0.85%
maximal % inhibition of viability (UT-SCC-106A [1]; [20]): 66 ± 4%
maximal % inhibition of viability (UT-SCC-106A [1]; [21]): 81.2 ± 5%
maximal % inhibition of viability (UT-SCC-14 [2]; [17]): 84.33 ± 0.67%
maximal % inhibition of viability (UT-SCC-14 [2]; [18]): 80.8 ± 3%
maximal % inhibition of viability (UT-SCC-14 [2]; [19]): 85.5 ± 3.3%
maximal % inhibition of viability (UT-SCC-14 [2]; [20]): 79.4 ± 0.92%
maximal % inhibition of viability (UT-SCC-14 [2]; [21]): 82.1 ± 3.8%
maximal % inhibition of viability (UT-SCC-24B [3]; [17]): 91.37 ± 0.75%
maximal % inhibition of viability (UT-SCC-24B [3]; [18]): 92.1 ± 2.7%
maximal % inhibition of viability (UT-SCC-24B [3]; [19]): 90.4 ± 1.1%
maximal % inhibition of viability (UT-SCC-24B [3]; [20]): 90.53 ± 0.42%
maximal % inhibition of viability (UT-SCC-24B [3]; [21]): 92.97 ± 0.47%
maximal % inhibition of viability (UT-SCC-28; [17]): 63.5 ± 2.3%
maximal % inhibition of viability (UT-SCC-28; [18]): 76.8 ± 4.2%
maximal % inhibition of viability (UT-SCC-28; [19]): 69.97 ± 0.67%
maximal % inhibition of viability (UT-SCC-28; [21]): 68.4 ± 2.8%
maximal % inhibition of viability (UT-SCC-40 [4]; [17]): 89.1 ± 2.1%
maximal % inhibition of viability (UT-SCC-40 [4]; [18]): 78.6 ± 1.7%
maximal % inhibition of viability (UT-SCC-40 [4]; [19]): 87.3 ± 1.2%
maximal % inhibition of viability (UT-SCC-40 [4]; [20]): 64 ± 9.4%
maximal % inhibition of viability (UT-SCC-40 [4]; [21]): 74.7 ± 2.4%
maximal % inhibition of viability (UT-SCC-42A; [17]): 79.9 ± 3.6%
maximal % inhibition of viability (UT-SCC-42A; [18]): 75.8 ± 1.8%
maximal % inhibition of viability (UT-SCC-42A; [19]): 80.1 ± 2.3%
maximal % inhibition of viability (UT-SCC-42A; [20]): 75.2 ± 1.4%
maximal % inhibition of viability (UT-SCC-42A; [21]): 81 ± 1.5%
maximal % inhibition of viability (UT-SCC-42B [5]; [17]): 86.7 ± 1.6%
maximal % inhibition of viability (UT-SCC-42B [5]; [19]): 76.3 ± 2.2%
maximal % inhibition of viability (UT-SCC-42B [5]; [20]): 58.6 ± 2%
maximal % inhibition of viability (UT-SCC-42B [5]; [21]): 64.5 ± 1.8%
maximal % inhibition of viability (UT-SCC-44 [6]; [17]): 57.8 ± 1.6%
maximal % inhibition of viability (UT-SCC-44 [6]; [18]): 65.8 ± 3.9%
maximal % inhibition of viability (UT-SCC-44 [6]; [19]): 58.2 ± 1.4%
maximal % inhibition of viability (UT-SCC-44 [6]; [20]): 65.9 ± 2%
maximal % inhibition of viability (UT-SCC-44 [6]; [21]): 63.5 ± 5%
maximal % inhibition of viability (UT-SCC-73 [7]; [17]): 84.2 ± 2.6%
maximal % inhibition of viability (UT-SCC-73 [7]; [18]): 76.2 ± 4.4%
maximal % inhibition of viability (UT-SCC-73 [7]; [19]): 82.4 ± 0.53%
maximal % inhibition of viability (UT-SCC-73 [7]; [20]): 79.5 ± 2.6%
maximal % inhibition of viability (UT-SCC-73 [7]; [21]): 81.8 ± 2.3%
maximal % inhibition of viability (UT-SCC-81; [17]): 93.5 ± 1.6%
maximal % inhibition of viability (UT-SCC-81; [18]): 81.1 ± 4.5%
maximal % inhibition of viability (UT-SCC-81; [19]): 88.93 ± 0.85%
maximal % inhibition of viability (UT-SCC-81; [20]): 79.9 ± 1.5%
maximal % inhibition of viability (UT-SCC-81; [21]): 82.8 ± 3.6%
maximal % inhibition of viability (UT-SCC-8 [8]; [17]): 97.57 ± 0.12%
maximal % inhibition of viability (UT-SCC-8 [8]; [18]): 87.6 ± 4.4%
maximal % inhibition of viability (UT-SCC-8 [8]; [19]): 94.8 ± 1.1%
maximal % inhibition of viability (UT-SCC-8 [8]; [20]): 90.4 ± 1.6%
maximal % inhibition of viability (UT-SCC-8 [8]; [21]): 94 ± 1.2%
